Results from ChEMBL document CHEMBL5360641, “4'-Ethynyl-2'-deoxy-2'-β-fluoro-2-fluoroadenosine: A Highly Potent and Orally Available Clinical Candidate for the Treatment of HIV-1 Infection” (J Med Chem, 2023).

Columns and labels:
[1] = system: Human immunodeficiency virus 1; test: Antiviral activity against HIV-1 harboring integrase G140S/Q148H double mutant infected in human TZM-bl cells assessed as inhibition of viral replication incubated for 3 to 7 days by luciferase assay; type: functional, organism-based; conditions: Human immunodeficiency virus 1, TZM-bl
[2] = system: Human immunodeficiency virus 1; test: Antiviral activity against HIV1 IIIB infected in human C8166 cells assessed as inhibition of viral replication by measuring reduction in p24 antigen level incubated for 3 to 7 days by ELISA analysis; type: functional, organism-based; conditions: Human immunodeficiency virus 1, IIIB
[3] = Cytotoxicity against HEK293T cells assessed as reduction in cell viability by MTT assay; type: toxicity, cell-based, HEK-293T; conditions: human
[4] = system: Human immunodeficiency virus 1; test: Antiviral activity against HIV1 IIIB infected in human C8166 cells assessed as inhibition of syncytia formation incubated for 3 to 7 days by syncytia assays; type: functional, organism-based; conditions: Human immunodeficiency virus 1, IIIB
[5] = system: Human immunodeficiency virus 1; test: Antiviral activity against HIV1 TC-1 infected in human PBMC assessed as inhibition of viral replication by measuring reduction in p24 antigen level incubated for 3 to 7 days by ELISA analysis; type: functional, organism-based; conditions: Human immunodeficiency virus 1, TC-1, PBMC
[6] = system: Human immunodeficiency virus 1; test: Antiviral activity against HIV1 IIIB infected in human MT4 cells assessed as inhibition of viral replication incubated for 3 to 7 days by MTT analysis; type: functional, organism-based; conditions: Human immunodeficiency virus 1, IIIB
[7] = system: Human immunodeficiency virus 1; test: Antiviral activity against HIV1 4755-5 infected in human C8166 cells assessed as inhibition of viral replication by measuring reduction in p24 antigen level incubated for 3 to 7 days by ELISA analysis; type: functional, organism-based; conditions: Human immunodeficiency virus 1, 4755-5, C8166
[8] = system: Human immunodeficiency virus 1; test: Antiviral activity against HIV1 WAN infected in human PBMC assessed as inhibition of viral replication by measuring reduction in p24 antigen level incubated for 3 to 7 days by ELISA analysis; type: functional, organism-based; conditions: Human immunodeficiency virus 1, WAN
[9] = system: Human immunodeficiency virus 1; test: Antiviral activity against HIV1 VSV-G pseudotyped virus infected in human HEK293T cells assessed as inhibition of viral growth preincubated for 3 hrs followed by washout and further incubated with compound for 72 hrs by luciferase assay; type: functional, organism-based; conditions: Human immunodeficiency virus 1, HEK-293T
[10] = system: Human immunodeficiency virus 1; test: Antiviral activity against HIV1 KIZ001 infected in human PBMC assessed as inhibition of viral replication by measuring reduction in p24 antigen level incubated for 3 to 7 days by ELISA analysis; type: functional, organism-based; conditions: Human immunodeficiency virus 1, KIZ001, PBMC
[11] = Selectivity index, ratio of CC50 for cytotoxicity against HEK293T cells assessed as reduction in cell viability by MTT assay to EC50 for antiviral activity against HIV1 VSV-G pseudotyped virus infected in human HEK293T cells assessed as inhibition of viral growth; type: toxicity, cell-based; conditions: read-out: Ratio CC50/EC50

For `Nc1ccn([C@@H]2CS[C@H](CO)O2)c(=O)n1` [LAMIVUDINE], the EC50 [1] was 138 nM, the EC50 [2] was 853 nM and the CC50 [3] was over 100000 nM. For the same compound, the EC50 [4] was 199 nM, the EC50 [5] was 210 nM and the EC50 [6] was 167 nM. For the same compound, the EC50 [7] was over 200000 nM, the EC50 [8] was 538 nM and the EC50 [9] was 170 nM. It also gave an EC50 [10] of 73 nM and a selectivity ratio [11] of over 588.
